Where “and” joins values, the source holds several entries; their conditions need not be identical. Equal values may be shown once. Read-outs that look alike come from different tables or passages of the source.
Experiments:
[1] = Ocular, retinal delivery of GGA by eye drop compared to systemic (PO) delivery, AUC (Example 21); assay type: in vivo; details: for Kp(eye ball) / Kp(retina): 180 mg/kg PO
[2] = Intraocular GGA levels, topical ocular 5% GGA versus 200 mg/kg oral; assay type: in vivo; details: topical ocular composition of 5% GGA vs 200 mg/kg GGA orally
Excerpt: The level achieved thereby into the ocular tissue was many-folds more, for example, about 5 times more than that achieved by systemic delivery by oral administration. […] Such is even more unexpected in view of the eye being a immunprotected organ which is predisposed to impede compounds from getting into the ocular tissue and to remove any compound entered into it.

[3] = Rat ocular pharmacokinetics: GGA concentration in eye balls after topical eye drops (LC-MS/MS); assay type: in vivo; details: for Mean of Duplicate / R/L: per rat; for Concentration: single determination; for R/L: ratio of right to left eye concentration
Experimental: (§1) In Cohort 2 the efficacy of Formulation 102 was tested against Formulation 101 and vehicle controls at different time points.
(§2) • Route: topical eye drop formulation • Frequency: 4 or 8 doses, every 1 hour • Dose Administration : under isofluorane anesthesia (2.5%) • Dose Volume: 5 μL in each eye
(§3) • Species: Rat • Strain: Sprague-Dawley • Supplier: Harlan • Sex: Male • Weight at Initiation: 200 to 220 g • Number of Animals: 12 for Cohort 1, 26 for Cohort 2
Eye drops were applied every hour either for 4 hours or for 8 hours. Animals were euthanized 4 hours and 8 hours after the first dosing, and the eye balls collected on dry ice. Eyes were homogenized with a polytron homogenizer in ethanol. GGA was quantified in the eye ball lysates by liquid chromatography-tandem mass spectroscopy.

HSP70 [4] = experiment: HSP70 analysis by ELISA in rat eyes after eye drops (Example 17, Cohort 2); assay type: in vivo; details: for Ratio: compound treated/vehicle treated, Average (AVE): HSP70, average of 4 rats; for Left (compound treated) AVE: HSP70, average of the left-eye values of Table 3 (pg/ml there); for Ratio treated eye/vehicle treated eye: HSP70, individual rat, left (compound) vs right (vehicle) eye; for HSP70: individual rat, compound-treated left eye, 5% eye drop 0.25 mg/eye per dose hourly, harvest time not stated
Experimental: as §1
Cohort 2: HSP70 analysis for ELISA only
as §2, §3

HSP70 [5] = experiment: HSP70 induction in eye balls by eye drops, ELISA normalized by total protein (Example 18); assay type: in vivo, Rat
Experimental: Eye drops were applied every hour either for 4 hours or for 8 hours. Animals were euthanized 4 hours, 8 hours or 24 hours after the first dosing, and the eye balls collected on ice. Eyes were homogenized with a polytron homogenizer in a standard lysis buffer containing proteinase inhibitors. HSP70 was quantified by a commercially available ELISA kit and normalized by total protein concentration in the sample.

[6] = contralateral eye, 8 doses, group average of Table 7 means (ng/g there), in ng/g
[7] = left (treated) eye, 4 doses, harvest 4 h
[8] = left (treated) eye, 8 doses, harvest 8 h
[9] = left (treated) eye, 4 hourly doses 0.25 mg/eye, harvest 4 h
[10] = left (treated) eye, 8 hourly doses 0.25 mg/eye, harvest 8 h
[11] = right (contralateral) eye, 4 doses, harvest 4 h
[12] = right (contralateral) eye, 8 doses, harvest 8 h
[13] = treated eye, 8 doses, group average of Table 7 means (ng/g there), in ng/g

CC(=O)CCC=C(C)CC/C=C(\C)CC/C=C(\C)CCC=C(C)C (mixture of isomers) [GGA, Geranylgeranyl acetone]
delivery into the retina and the eyeball ([1]; eye drop): effective delivery | levels of geranylgeranyl acetone achieved intraocularly, topical vs oral [2]: about 5 fold

CC(=O)CCC=C(C)CC/C=C(\C)CC/C=C(\C)CCC=C(C)C (mixture of isomers) [CNS-101, cis-trans geranylgeranyl acetone]
contra/ipsi AVE ([3]; 4 doses, 4 h): 0.349 | contra/ipsi AVE ([3]; 8 doses, 8 h): 0.1718 | 4 h contra AVE ([3]; contralateral eye, 4 doses, group average of Table 7 means (ng/g there), in ng/g): 5856.333 | 8 h contra AVE [3, 6]: 2986.667 | Mean of Duplicate [3, 7]: 14722 ng/g and 15163 ng/g and 19992 ng/g | Mean of Duplicate [3, 8]: 18546 ng/g and 13199 ng/g and 18795.5 ng/g | Concentration [3, 9]: 14635 ng/g and 14809 ng/g and 15206 ng/g and 15120 ng/g and 19608 ng/g and 20376 ng/g | Concentration [3, 10]: 18947 ng/g and 18145 ng/g and 12879 ng/g and 13519 ng/g and 18953 ng/g and 18638 ng/g | concentration at 4 h ([3]; male, Sprague-Dawley, rat, eye balls, topical, CNS-101 concentrations in eye balls, mean ± SD, 4 × 5 ml 5% CNS-101, measured after 4 hrs): 16600 ng/g | concentration at 8 h ([3]; male, Sprague-Dawley, rat, eye balls, topical, CNS-101 concentrations in eye balls, mean ± SD, 8 × 5 ml 5% CNS-101, measured after 8 hrs): 16800 ng/g | R/L ([3]; 4 doses, 4 h): 0.4357 and 0.2213 and 0.3901 | R/L ([3]; 8 doses, 8 h): 0.1996 and 0.1209 and 0.1949 | Mean of Duplicate [3, 11]: 6414.5 ng/g and 3355 ng/g and 7799.5 ng/g | Mean of Duplicate [3, 12]: 3701 ng/g and 1596 ng/g and 3663 ng/g | 4 h ispi AVE ([3]; treated eye, 4 doses, group average of Table 7 means (ng/g there), in ng/g): 16625.67 | 8 h ispi AVE [3, 13]: 16846.83 | Ratio: compound treated/vehicle treated, Average (AVE) (HSP70 [4]): 1.665 | Left (compound treated) AVE (HSP70 [4]): 952.4506 | Ratio treated eye/vehicle treated eye (HSP70 [4]): 1.003 and 2.135 and 1.544 and 1.976 | HSP70 (HSP70 [4]): 589.4561 pg/mL and 1023.901 pg/mL and 1211.234 pg/mL and 985.2114 pg/mL | HSP70 expression in eye balls, mean ± SD (HSP70 [5]; topical ocular 5% CNS-101, 4 hours): 50.7 ± 8.01 pg/mg protein | HSP70 expression in eye balls, mean ± SD (HSP70 [5]; topical ocular 5% CNS-101, 8 hours): 55.9 ± 11.2 pg/mg protein | HSP70 expression in eye balls, mean ± SD (HSP70 [5]; topical ocular 5% CNS-101, 24 hours): 50.5 ± 10.8 pg/mg protein | Kp(eye ball) [1]: 0.71 | Kp(retina) [1]: 2.21

CC(=O)CC/C=C(\C)CC/C=C(\C)CC/C=C(\C)CCC=C(C)C [CNS-102, (5E, 9E, 13E) geranylgeranyl acetone]
contra/ipsi AVE ([3]; 4 doses, 4 h): 0.3052 | contra/ipsi AVE ([3]; 8 doses, 8 h): 0.2617 | 8 h contra AVE [3, 6]: 2105 | Mean of Duplicate [3, 7]: 30309 ng/g and 21828 ng/g and 17344 ng/g | Mean of Duplicate [3, 8]: 10746 ng/g and 8395 ng/g and 7168.5 ng/g | Concentration [3, 9]: 32854 ng/g and 27764 ng/g and 21506 ng/g and 22150 ng/g and 17494 ng/g and 17194 ng/g | Concentration [3, 10]: 12094 ng/g and 9398 ng/g and 8505 ng/g and 8285 ng/g and 7547 ng/g and 6790 ng/g | concentration at 4 h ([3]; male, Sprague-Dawley, rat, eye ball (contralateral eye), topical, 0.25 mg/eye, contralateral eye, 4 doses, group average of Table 7 means (ng/g there), read-out: 4 h contra AVE): 7260 ng/g | concentration at 4 h ([3]; male, Sprague-Dawley, rat, eye ball (treated, ipsilateral eye), topical, 0.25 mg/eye, treated eye, 4 doses, group average of Table 7 means (ng/g there), read-out: 4 h ispi AVE): 23200 ng/g | R/L ([3]; 4 doses, 4 h): 0.3848 and 0.2037 and 0.327 | R/L ([3]; 8 doses, 8 h): 0.1144 and 0.2267 and 0.444 | Mean of Duplicate [3, 11]: 4447 ng/g and 5672 ng/g and 11663.5 ng/g | Mean of Duplicate [3, 12]: 1229 ng/g and 1903.5 ng/g and 3182.5 ng/g | 8 h ispi AVE [3, 13]: 8769.833 | Ratio: compound treated/vehicle treated, Average (AVE) (HSP70 [4]): 1.089 | Left (compound treated) AVE (HSP70 [4]): 681.9337 | Ratio treated eye/vehicle treated eye (HSP70 [4]): 0.5953 and 1.239 and 1.26 and 1.263 | HSP70 (HSP70 [4]): 685.1953 pg/mL and 757.1621 pg/mL and 583.588 pg/mL and 701.7893 pg/mL | Kp(eye ball) [1]: 0.19 | Kp(retina) [1]: 0.79
